Data on one substance can be found in patent US20260226101A1, “PEPTIDE WITH ANTI-INFLAMMATORY AND ANTI-MICROBIAL ACTIVITY” (priority 2023, published 2026).

Ends that are not written are not given here.

Assay [1] has as its system LPS-stimulated RAW 264.7 cells. As to the kind of experiment: ELISA of cytokines in supernatants of LPS-stimulated RAW 264.7 cells. In kind it is cell-based, murine. Here is the method: Cells were sub-cultured by scraping when plates reached 70-80% confluence with a 1:5 ratio in fresh medium. RAW 264.7 cells were plated at density of 1×10^5 cells and allowed for attachment. The growth medium was then replaced with fresh medium without FBS and incubated for 6 h then cells were pre-treated with different concentrations of synthetic peptides: IS 111 (3.12, 6.25, 12.5, 25, 50 and 100 μg/mL) or dexamethasone (500 μg/mL) as a positive control for 1 h followed by stimulation of LPS (1 μg/mL) and then further incubated for 18 h and were allowed to adhere. After 18 h of incubation, plates were centrifuged for 6 min at 400×g and the supernatants and cell lysates were collected and kept frozen at −80° C. until used for further analysis.
At the end of the treatment period, cells were harvested in RNA isoplus reagent for subsequent cellular RNA extraction, for RTqPCR. The pro & anti-inflammatory cytokine production in supernatants was estimated by using ELISA, RTqPCR and western blotting in cell lysates. The experiment was carried out in triplicate. LPS and Dexamethasone were used as the controls.
The following treatments were applied for the anti-inflammatory test: • (1) The negative control: RAW 264.7 cells without being induced by lipopolysaccharide; no drug treatment. • (2) The positive control: RAW264.7 cells that were induced by […] of lipopolysaccharide (LPS group). • (3) The mixture of Synthetic peptides: IS 111 (3.12, 6.25, 12.5, 25, 50 and 100 μg/ml), LPS (1 μg/mL) and RAW 264.7 cells; and • (4) The standard positive control: The mixture of dexamethasone (500 μg/mL), LPS (1 μg/mL), and RAW 264.7 cells.
The levels of IL-6, TNF-α, IL-1β, and IL-10 in the supernatants of RAW 264.7 cell cultures were determined using an ELISA kit, according to the manufacturer's instructions (R&D Systems).

Assay [2] deals with LPS-stimulated peritoneal macrophages. Put plainly: Cytokine ELISA in LPS-stimulated peritoneal macrophages. Type of assay: cell-based, BALB/c mice. Here is the method:
BALB/c mice (6-8 wk old) of either sex was injected IP with 1 ml of 4% sterile thioglycollate broth in PBS. After 4 d, mice were sacrificed, and peritoneal macrophages were harvested as described below [Meurer S K, 2016] and this model is well known as “Thioglycollate-induced peritonitis model”. […] After 4 days, mice were then euthanized, and the peritoneal macrophages were harvested by lavaging the peritoneal cavity with 5-6 mL of harvest medium (EDTA 5 mM+PBS). Isolated peritoneal exudate cells were washed twice with RPMI and centrifuged at 1000 rpm/400×g for 8-10 min at 4° C. […] The plates were then washed with warm PBS to remove non-adherent cells. […] After 24 h, culture supernatants were collected for estimation of cytokines by ELIZA and RTqPCR, whereas cells were harvested for western blotting. The procedure of ELISA, RTqPCR and other conditions are same as in the section. [Min Jee Kim et al., 2014].
A general note: ELISA stands for enzyme-linked immunosorbent assay.

The subject of assay [3] is E. coli ATCC 8739-induced septic peritonitis. Put plainly: E. coli-induced septic peritonitis model. Type of assay: in vivo, BALB/c mice. To be noted: administration at 1, 24 and 72 h post injection of E. coli; last time point of 8 h.
The mark [4] stands for this setting: 3.12-100 μg/mL pretreatment, LPS 18 h, vs LPS group.

Consider “FAKKFAK [IS 111, Phe-Ala-Lys-Lys-Phe-Ala-Lys]”, for which, in assay [1] (setting [4]), the “IL-1β production (ELISA)” value is recorded as “inhibited”, the “IL-6 levels (ELISA)” value was “reduced”, the “IL-10 levels (ELISA)” value was “significantly increased” and the “TNF-alpha levels (ELISA)” value is “significantly reduced”. In addition, the “Concentration with better inhibition of TNF-α, IL-1β and IL-6 than 100 μg/mL” value in assay [1] (LPS induced RAW 264.7) was found to be 25 µg/mL. Also, the NO production entry in assay [1] (LPS-stimulated RAW cells, summary table) is on record as “↓Cytotoxicity; ↓ NO production; ↓”. Also, in assay [2] (IL-1β, IL-6, IL-12p70, TNF-α, text prints RAW 264.7 cells), the “Concentration of maximum inhibition for all cytokines” value came to 100 µM. In addition, the IL-10 levels result in assay [2] (summary table) is “TNF-α and ↑ IL-10 levels”. Further, in assay [3], the Survival is listed as 80%.
